According to publication PMC7161699 (Acta Pharmaceutica Sinica. B, 2019):

Molecular target: PAK1 (Homo sapiens, UniProt Q13153)
Assay: Z'-LYTE kinase assay, Ser/Thr […] peptide
Format: biochemical

PAK1, sequence (Q13153 2-545): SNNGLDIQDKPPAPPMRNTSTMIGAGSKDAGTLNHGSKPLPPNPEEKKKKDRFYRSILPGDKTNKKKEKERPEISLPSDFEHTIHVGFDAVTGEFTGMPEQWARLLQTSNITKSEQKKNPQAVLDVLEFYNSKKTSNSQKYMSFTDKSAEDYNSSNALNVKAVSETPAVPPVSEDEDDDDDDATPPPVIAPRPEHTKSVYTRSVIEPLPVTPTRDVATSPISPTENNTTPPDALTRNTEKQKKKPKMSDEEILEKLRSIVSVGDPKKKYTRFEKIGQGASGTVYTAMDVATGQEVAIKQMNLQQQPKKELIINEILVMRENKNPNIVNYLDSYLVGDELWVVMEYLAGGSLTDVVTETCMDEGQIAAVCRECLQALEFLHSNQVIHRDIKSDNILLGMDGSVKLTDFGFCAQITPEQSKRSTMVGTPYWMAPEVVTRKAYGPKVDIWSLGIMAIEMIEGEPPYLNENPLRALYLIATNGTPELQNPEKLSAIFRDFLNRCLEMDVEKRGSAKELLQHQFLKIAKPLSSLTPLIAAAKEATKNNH

SMILES: Cc1ccc2[nH]c(=O)c3cc(C(=O)NCCCN(C)Cc4ccccc4)sc3c2c1 [CP734, N-[3-(benzyl-methylamino)propyl]-8-methyl-4-oxo-5H-thieno[4,5-c]quinoline-2-carboxamide]
- IC50: 15.3 µM
